Measurements taken from patent US20130303376A1, “METHODS OF IMPROVING PLANT GROWTH” (Bayer CropScience AG, priority 2007, published 2013).
Where “and” joins values, the source holds several entries; their conditions need not be identical. Identical values can stand only once.

Columns and labels:
Type in all cases: in vivo
[1] = tested on: Solanum lycopersicum ‘Rentita’; assay: Root growth test of tomatoes under oxygen deficiency conditions in the nutrient solution; settings: 1.0 mg a.i./plant; floating box, nutrient solution not aerated (oxygen deficiency stress); average maximum root length after 12 d
Method: To prepare a suitable solution of the preparation, I part by weight of active substance is mixed with water to give the desired concentration.
(§1) Tomato seeds (Solanum lycopersicum ‘Rentita’) are grown in rock wool. After germination, the rock wool blocks are transferred into a floating box provided with the solution of the preparation and grown on under suitable climatic conditions.
(§2) The nutrient solution of the floating box was not aerated (oxygen deficiency stress).
After the desired period of time, the maximum length of the root per tomato plant is measured, and the average root length per floating box and treatment is calculated.

[2] = tested on: Solanum lycopersicum ‘Rentita’; assay: Shoot length test on tomatoes under oxygen deficiency conditions in the nutrient solution; settings: 1.0 mg a.i./plant; floating box, nutrient solution not aerated (oxygen deficiency stress); average maximum shoot length after 19 d
Method: To prepare a suitable solution of the preparation, 1 part by weight of active substance is mixed with water to give the desired concentration.
as §1, §2
After the desired period of time, the maximum shoot length per tomato plant is measured, and the average shoot length per floating box and treatment is calculated.

Botrytis cinerea = assay: Drench application for controlling Botrytis cinerea (grey mould) on tomatoes; design: Disease level, replicates 1-9 / Disease level Ø / Disease level and shed leaves: scale not given here; settings: tomato; for Disease level Ø / Shed leaves Ø / Disease level, replicates 1-9 / Shed leaves, replicates 1-9 / Disease level and shed leaves: 10 d post-inoculation, drench, all actives 5 d before inoculation; for Disease level Ø / Shed leaves Ø / Disease level, replicates 1-9 / Shed leaves, replicates 1-9: I-34/I-7 10 mg a.i./plant, fluopyram 20 mg a.i./plant; for Disease level Ø / Shed leaves Ø: mean of 9; for Disease level, replicates 1-9 / Shed leaves, replicates 1-9: single replicates; for Disease level and shed leaves: sum of the two Ø
Method: To control Botrytis cinerea (grey mould) on tomatoes, tomato plants which had been grown in peaty soil were treated with the compounds I-34 or I-7 alone or in combination with the fungicide fluopyram (drench application) 5 or 10 days before being inoculated with Botrvtis cinerea. [table] The inoculation with Botrytis cinerea was carried out at the stated points in time (5 or 10 days after drench application of compound I-34, I-7 and/or fluopyram). Inoculation density: 15 000 spores/ml, approx. 33 ml of spore suspension/plant. The disease level of the plants was evaluated 10 days after the inoculation with Botrytis cinerea.

[3] = tested on: Triticum aestivum ‘Dekan’; assay: Leaf biomass test on wheat under oxygen deficiency conditions in the nutrient solution; settings: 0.5 mg a.i./plant, floating box, nutrient solution not aerated (oxygen deficiency stress)
Excerpt: (§3) To prepare a suitable solution of the preparation, 1 part by weight of formulated product is mixed with water to give the desired concentration.
(§4) Wheat kernels (Triticum aestivum ‘Dekan’) or tomato seeds (Solanum lycopersicum ‘Rentita’) are sown in compost and grown under suitable climatic conditions in a floating box provided with the solution of the preparation. The nutrient solution of the floating box was not aerated (oxygen deficiency stress).
(§5) After the desired period of time, the leaf biomass per wheat or tomato plant is measured, and the average weight per floating box and treatment is calculated.

[4] = tested on: Solanum lycopersicum ‘Rentita’; assay: Leaf biomass test on tomatoes under oxygen deficiency conditions in the nutrient solution; settings: 1.0 mg a.i./plant, floating box, nutrient solution not aerated (oxygen deficiency stress)
Excerpt: as §3, §4, §5

[5] = tested on: Triticum aestivum ‘Dekan’; assay: Root growth test of wheat under oxygen deficiency conditions in the nutrient solution; settings: 0.5 mg a.i./plant; floating box, nutrient solution not aerated (oxygen deficiency stress); average maximum root length after 14 d
Method: To prepare a suitable solution of the preparation, I part by weight of formulated product is mixed with water to give the desired concentration.
Wheat kernels (Triticum aestivum ‘Dekan’) are sown in compost and grown under suitable climatic conditions in a floating box provided with the solution of the preparation. The nutrient solution of the floating box was not aerated (oxygen deficiency stress).
After the desired period of time, the maximum length of the root per wheat plant is measured, and the average root length per floating box and treatment is calculated.

Row | SMILES | Root growth of tomatoes: Length in cm after 12 d [1] | Shoot length of tomatoes: Length in cm after 19 d [2] | Disease level Ø (Botrytis cinerea) | Shed leaves Ø (Botrytis cinerea) | Disease level, replicates 1-9 (Botrytis cinerea) | Shed leaves, replicates 1-9 (Botrytis cinerea) | Disease level and shed leaves (Botrytis cinerea) | other results
1 | O=C1C=C(N(CCF)Cc2ccc(Cl)nc2)CO1 [Compound (I-6), 4-{[(6-chloropyrid-3-yl)methyl](2-fluoroethyl)amino}furan-2(5H)-one] | 11.08 cm | 7.33 cm |  |  |  |  |  | 
2 | O=C1C=C(N(Cc2ccc(Cl)nc2)C2CC2)CO1 [Compound (I-31), 4-{[(6-chloropyrid-3-yl)methyl](cyclopropyl)amino}furan-2(5H)-one] | 11.16 cm | 6.78 cm |  |  |  |  |  | 
3 | CN(Cc1ccc(Cl)nc1)C1=CC(=O)OC1 [Compound (I-34), 4-{[(6-chloropyrid-3-yl)methyl](methyl)amino}furan-2(5H)-one] | 9.53 cm | 6.75 cm | 3 | 3 | 5 and 2 (4×) and 3 (2×) and 4 (2×) | 3 (3×) and 0 and 4 (3×) and 5 and 2 | 61 | 
4 | O=C1C=C(N(CCF)Cc2cnc(Cl)c(Cl)c2)CO1 [Compound (I-14), 4-{[(5,6-dichloropyrid-3-yl)methyl](2-fluoroethyl)amino}furan-2(5H)-one] | 6.97 cm |  |  |  |  |  |  | 
5 | CN(Cc1cnc(Cl)c(F)c1)C1=CC(=O)OC1 [Compound (I-8), 4-{[(6-chloro-5-fluoropyrid-3-yl)methyl](methyl)amino}furan-2(5H)-one] | 7.43 cm | 6.6 cm |  |  |  |  |  | 
6 | O=C(NCCc1ncc(C(F)(F)F)cc1Cl)c1ccccc1C(F)(F)F [Fluopyram, fluopyram, reference compound] |  |  | 1 | 0 | 5 (3×) and 2 and 1 (3×) and 3 (2×) | 0 | 11 | Appearance of infected leaf tissue (symptoms of the disease) (Botrytis cinerea; 10 d post-inoculation with Botrytis cinerea, FIGS. 4-6, in words): remains dark and wet
7 | CC1OC(=O)C=C1N(C)Cc1ccc(Cl)nc1 (stereo not drawn) [Compound (I-25), 4-{[(6-chloropyrid-3-yl)methyl](methyl)amino}-5-methylfuran-2(5H)-one] | 9.19 cm | 6.8 cm |  |  |  |  |  | 
8 | O=C1C=C(N(Cc2ccc(Cl)nc2)CC(F)F)CO1 [Compound (I-7), 4-{[(6-chloropyrid-3-yl)methyl](2,2-difluoroethyl)amino}furan-2(5H)-one] | 8.67 cm | 7.15 cm | 3 | 3 | 3 (6×) and 2 and 4 and 5 | 5 (3×) and 6 and 3 (2×) and 4 and 2 and 1 | 68 | Leaf biomass of wheat: Weight in g after 22 d [3]: 15.7 g; Leaf biomass of tomato: Weight in g after 21 d [4]: 19.4 g; Root growth of wheat: Length in cm after 14 d [5]: 22.1 cm
9 | CN(Cc1ccc(Cl)nc1)C1=CC(=O)CC1 [Compound (I-18), 3-{[(6-chloropyrid-3-yl)methyl](methyl)amino}cyclopent-2-en-1-one] | 7.56 cm |  |  |  |  |  |  | 
